ChEMBL document CHEMBL1909046, “DrugMatrix in vitro pharmacology data”

How the values were obtained:
[1] = target: Cytochrome P450 2D6 (Homo sapiens, UniProt P10635); conditions: bti-tn-5b1-4; also: in other assays of this panel Not Active means under 50% inhibition at 10 µM
[2] = target: T1, Neutrophil elastase (Homo sapiens, UniProt P08246); format: tissue-based;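 also: inhibition of neutrophil elastase enzyme activity, measured with a p-nitroanilide-linked peptide substrate; in other assays of this panel Not Active means under 50% inhibition at 10 µM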
T1 sequence (P08246 whole entry): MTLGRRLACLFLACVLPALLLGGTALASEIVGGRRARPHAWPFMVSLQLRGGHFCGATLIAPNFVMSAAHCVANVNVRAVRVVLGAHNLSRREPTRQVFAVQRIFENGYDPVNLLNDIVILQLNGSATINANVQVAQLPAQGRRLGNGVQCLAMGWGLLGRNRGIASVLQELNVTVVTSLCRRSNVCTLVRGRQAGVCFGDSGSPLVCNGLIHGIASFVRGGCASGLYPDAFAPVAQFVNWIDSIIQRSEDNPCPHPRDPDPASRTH

[3] = DRUGMATRIX: Phosphodiesterase PDE3 enzyme inhibition (substrate: [3H]cAMP + cAMP); format: tissue-based, Homo sapiens; conditions: platelet; Not Active = under 50% inhibition at 10 µM
[4] = DRUGMATRIX: Glutamate, NMDA, Agonism radioligand binding (ligand: [3H] CGP-39653); format: cell membranes, Rattus norvegicus, Wistar, Cerebral cortex, Membrane; conditions: Not Active = under 50% inhibition at 10 µM
[5] = target: T2, Leukotriene C4 synthase (Cavia porcellus, UniProt A6XA80); format: tissue-based, Lung;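 also: enzyme inhibition assay of leukotriene C4 synthase, using LTA4 as the substrate; in other assays of this panel Not Active means under 50% inhibition at 10 µM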
T2 sequence (A6XA80 whole entry): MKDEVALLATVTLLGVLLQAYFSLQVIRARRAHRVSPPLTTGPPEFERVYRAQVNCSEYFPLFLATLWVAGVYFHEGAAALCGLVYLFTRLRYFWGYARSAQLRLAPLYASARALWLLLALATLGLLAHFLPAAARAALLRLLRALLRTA

[6] = DRUGMATRIX: Sigma2 radioligand binding (ligand: [3H] Ifenprodil); format: cell membranes, Rattus norvegicus, Wistar, Brain, Membrane; conditions: Not Active = under 50% inhibition at 10 µM
[7] = target: Mitogen-activated protein kinase 14 (Homo sapiens, UniProt Q16539); design: species or system Escherichia coli;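 also: inhibition of p38alpha enzyme activity in a biochemical kinase assay, with myelin basic protein serving as substrate; in other assays of this panel Not Active means under 50% inhibition at 10 µM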
Sequence of Mitogen-activated protein kinase 14 (Q16539 whole entry): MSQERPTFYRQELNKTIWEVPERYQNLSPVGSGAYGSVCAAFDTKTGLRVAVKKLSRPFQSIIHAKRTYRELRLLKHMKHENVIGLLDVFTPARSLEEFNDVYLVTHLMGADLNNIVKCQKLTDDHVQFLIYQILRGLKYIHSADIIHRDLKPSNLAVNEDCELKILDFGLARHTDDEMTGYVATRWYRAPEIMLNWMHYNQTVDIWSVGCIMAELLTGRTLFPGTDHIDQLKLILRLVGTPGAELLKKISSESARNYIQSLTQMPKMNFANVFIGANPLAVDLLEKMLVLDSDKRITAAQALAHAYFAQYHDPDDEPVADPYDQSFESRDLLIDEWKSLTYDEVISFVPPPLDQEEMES

Sequence of Cytochrome P450 2D6 (P10635 whole entry): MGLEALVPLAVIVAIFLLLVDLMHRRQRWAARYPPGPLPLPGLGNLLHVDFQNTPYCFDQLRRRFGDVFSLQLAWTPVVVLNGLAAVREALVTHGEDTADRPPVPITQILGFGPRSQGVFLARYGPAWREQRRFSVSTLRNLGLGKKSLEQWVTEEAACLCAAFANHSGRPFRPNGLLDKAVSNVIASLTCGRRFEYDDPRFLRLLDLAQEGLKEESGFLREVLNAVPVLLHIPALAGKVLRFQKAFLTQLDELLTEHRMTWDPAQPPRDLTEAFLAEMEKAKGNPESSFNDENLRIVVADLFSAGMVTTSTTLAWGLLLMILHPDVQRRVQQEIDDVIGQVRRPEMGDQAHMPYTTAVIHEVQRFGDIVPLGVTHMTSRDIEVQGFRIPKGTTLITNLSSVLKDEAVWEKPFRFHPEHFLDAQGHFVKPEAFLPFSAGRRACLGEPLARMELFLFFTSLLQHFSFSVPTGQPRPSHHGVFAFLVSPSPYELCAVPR

CC(=O)OCC(=O)[C@@]1(O)CC[C@H]2[C@@H]3CCC4=CC(=O)CC[C@]4(C)[C@@]3(F)[C@@H](O)C[C@@]21C [FLUDROCORTISONE ACETATE]
Not Active: IC50 [1] | Ki [1] | IC50 [2] | IC50 [3] | Ki [3] | IC50 [4] | Ki [4] | IC50 [5] | IC50 [6] | Ki [6] | IC50 [7]

CN(C)C(=O)Oc1cccc([N+](C)(C)C)c1.[Br-] [NEOSTIGMINE BROMIDE]
Not Active: IC50 [1] | Ki [1] | IC50 [2] | IC50 [3] | Ki [3] | IC50 [4] | Ki [4] | IC50 [5] | IC50 [6] | Ki [6] | IC50 [7]

C[C@]12CC[C@@H]3c4ccc(O)cc4CC[C@H]3[C@@H]1C[C@@H](O)[C@@H]2O [ESTRIOL]
Not Active: IC50 [1] | Ki [1] | IC50 [2] | IC50 [3] | Ki [3] | IC50 [4] | Ki [4] | IC50 [5] | IC50 [6] | Ki [6] | IC50 [7]

CCN(CC)CCNC(=O)c1ccc(N)cc1 [PROCAINAMIDE]
Not Active: IC50 [1] | Ki [1] | IC50 [2] | IC50 [3] | Ki [3] | IC50 [4] | Ki [4] | IC50 [5] | IC50 [6] | Ki [6] | IC50 [7]

O=C(O)P(=O)(O)O [FOSCARNET]
Not Active: IC50 [1] | Ki [1] | IC50 [2] | IC50 [3] | Ki [3] | IC50 [4] | Ki [4] | IC50 [5] | IC50 [6] | Ki [6] | IC50 [7]

C[C@H]1[C@H](NC(=O)/C(=N\OC(C)(C)C(=O)O)c2csc(N)n2)C(=O)N1S(=O)(=O)O [AZTREONAM]
Not Active: IC50 [1] | Ki [1] | IC50 [2] | IC50 [3] | Ki [3] | IC50 [4] | Ki [4] | IC50 [5] | IC50 [6] | Ki [6] | IC50 [7]

CN1C[C@@H]2C[C@H]1CN2c1cc2c(cc1F)c(=O)c(C(=O)O)cn2C1CC1 [DANOFLOXACIN]
Not Active: IC50 [1] | Ki [1] | IC50 [2] | IC50 [3] | Ki [3] | IC50 [4] | Ki [4] | IC50 [5] | IC50 [6] | Ki [6] | IC50 [7]

NCCCNCCSP(=O)(O)O [AMIFOSTINE]
Not Active: IC50 [1] | Ki [1] | IC50 [2] | IC50 [3] | Ki [3] | IC50 [4] | Ki [4] | IC50 [5] | IC50 [6] | Ki [6] | IC50 [7]

CCn1cc(C(=O)O)c(=O)c2cc(F)c(N3CCNC(C)C3)c(F)c21 (configuration not stated) [LOMEFLOXACIN]
Not Active: IC50 [1] | Ki [1] | IC50 [2] | IC50 [3] | Ki [3] | IC50 [4] | Ki [4] | IC50 [5] | IC50 [6] | Ki [6] | IC50 [7]

CN1CCN(c2c(F)cc3c(=O)c(C(=O)O)cn(CCF)c3c2F)CC1 [FLEROXACIN]
Not Active: IC50 [1] | Ki [1] | IC50 [2] | IC50 [3] | Ki [3] | IC50 [4] | Ki [4] | IC50 [5] | IC50 [6] | Ki [6] | IC50 [7]

C[C@H]1COc2c(N3CCN(C)CC3)c(F)cc3c(=O)c(C(=O)O)cn1c23.C[C@H]1COc2c(N3CCN(C)CC3)c(F)cc3c(=O)c(C(=O)O)cn1c23.O [LEVOFLOXACIN]
Not Active: IC50 [1] | Ki [1] | IC50 [2] | IC50 [3] | Ki [3] | IC50 [4] | Ki [4] | IC50 [5] | IC50 [6] | Ki [6] | IC50 [7]

NC(=O)c1cccc(N)c1 [3-AMINOBENZAMIDE]
Not Active: IC50 [1] | Ki [1] | IC50 [2] | IC50 [3] | Ki [3] | IC50 [4] | Ki [4] | IC50 [5] | IC50 [6] | Ki [6] | IC50 [7]
